Source: US5591741A, “Fungicidal spiroheterocyclic derivatives” (American Cyanamid Company, priority 1993, dated 1997)

Columns and labels:
[1] = tested on: Pseudocercosporella herpotrichoides; test: Activity against wheat eyespot in-vitro (PHI); assay type: cell-based; details: 10 ppm, 10 days, 20° C., mycelial growth
Procedure: (h) Activity against wheat eyespot in-vitro (Pseudocercosporella herpotrichoides; pHI) This test measures the in vitro activity of compounds against the fungus causing wheat eyespot. The test compound is dissolved or suspended in acetone and is added into 4 ml aliquots of half strength Potato Dextrose Broth (PDB) dispended in 25-compartment petri dishes to give a final concentration of 10ppm. The fungal inoculum consists of mycelial fragments of P. herpotrichoides grown in half strength PDB in shaken flasks and added to the broth to provide 5×10^4 fragments/ml broth. Petri dishes are incubated at 20° C. for 10 days until the assessment of mycelial growth. The extent of disease control in all the above tests is expressed as a rating compared with either an untreated control or a diluent-sprayed-control, according to the criteria: […]

[2] = tested on: Rhizoctonia solani; test: Activity against Rhizoctonia in-vitro (RSI); assay type: cell-based; details: 10 ppm, 10 days, 20° C., mycelial growth
Procedure: (i) Activity against Rhizoctonia in-vitro (Rhizoctonia solani: RSI) This test measures the in-vitro activity of compounds against R. solani that causes stem and root rots. The test compound in acetone is added into 4 ml aliquots of half strength Potato Dextrose Broth dispensed in 25-compartment petri dishes to give final concentrations of 10 ppm. The fungal inoculum consists of mycelial fragments of R. solani growth in half strength PDB in shaken culture flasks and added to the broth to provide 5×10^4 fragments/ml broth. Petri dishes are incubated at 20° C. for 10 days until the assessment of mycelial growth. The extent of disease control in all the above tests is expressed as a rating compared with either an untreated control or a diluent-sprayed-control, according to the criteria: […]

[3] = tested on: Erysiphe graminis f.sp. hordei; test: Activity against barley powdery mildew, direct therapeutic (EGT); assay type: in vivo; details: direct therapeutic foliar spray, 600 ppm, up to 7 days
Procedure: (e) Activity against barley powdery mildew (Erysiphe graminis f.sp. hordei; EGT) The test is a direct therapeutic foliar spray. Leaves of barley seedlings, (cv. Golden Promise) at the single leaf stage are inoculated by dusting with mildew conidia one day prior to treatment with the test compound. The inoculated plants are kept overnight at glasshouse ambient temperature (18° C.) and humidity (40%) prior to treatment. The plants are sprayed with the test compound at a dosage of 600 ppm using an automated sprayline as described under (a). After drying, plants are returned to a compartment at 18° C. and 40% humidity for up to 7 days. Assessment is based on the percentage of leaf area covered by sporulation compared with that on leaves of control plants. The extent of disease control in all the above tests is expressed as a rating compared with either an untreated control or a diluent-sprayed-control, according to the criteria: […]

[4] = tested on: Plasmopara viticola; test: Antisporulant activity against vine downy mildew (PVA); assay type: in vivo; details: vine leaves, antisporulant foliar spray, 600 ppm, 750 l/ha
Procedure: (a) Antisporulant activity against vine downy mildew (Plasmopara viticola; PVA) The test is a direct antisporulant one using a foliar spray. The lower surfaces of leaves of whole vine plants (cv Cabernet Sauvignon), approximately 8 cm high, are inoculated by spraying with an aqueous suspension containing 5×10^4 zoosporangia/ml. The inoculated plants are kept for 24 hours at 21° C. in a high humidity compartment, then 24 hours at glasshouse ambient temperature and humidity. Infected leaves are sprayed on their lower surfaces with a solution of active material in 1:1 water/acetone containing 0.04% "TWEEN 20" (Trade Mark; a polyoxyethylene sorbitan ester surfactant). Plants are treated using an automated sprayline with an atomising nozzle. The concentration of the compound is 600 ppm, and the spray volume is 750 l/ha. After spraying, the plants are returned to normal glasshouse conditions for 96 hours and are then transferred to the high humidity compartment for 24 hours to induce sporulation. Assessment is based on the percentage of the leaf area covered by sporulation compared with that on control leaves. The extent of disease control in all the above tests is expressed as a rating compared with either an untreated control or a diluent-sprayed-control, according to the criteria: […]

[5] = tested on: Botrytis cinerea; test: Direct protectant activity against broad bean grey mould (BCB); assay type: in vivo; details: direct protectant foliar spray, 600 ppm, 4 days
Procedure: (c) Direct protectant activity against broad bean grey mould (Botrytis cinerea; BCB) The test is a direct protectant foliar spray. The upper surfaces of leaves of broad bean plants with two leaf pairs (cv The Sutton) are sprayed with the test compound at a dosage of 600 ppm using an automated sprayline as described under (a). 24 hours after spraying the leaves are inoculated with an aqueous suspension containing 10^6 conidia/ml. For 4 days after inoculation plants are kept in a high humidity compartment at 22° C. Disease is assessed 4 days after inoculation, based on the percentage of leaf surface area covered by lesions. The extent of disease control in all the above tests is expressed as a rating compared with either an untreated control or a diluent-sprayed-control, according to the criteria: […]

[6] = tested on: Leptosphaeria nodorum; test: Activity against wheat leafspot (LN); assay type: in vivo; details: direct therapeutic foliar spray, 600 ppm, 6-8 days
Procedure: (d) Activity against wheat leafspot (Leptosphaeria nodorum; LN.) The test is a direct therapeutic foliar spray. Leaves of wheat plants (cv Norman), at the single leaf stage, are inoculated by spraying with an aqueous suspension containing 1.5×10^6 conidia/ml. The inoculated plants are kept for 24 hours in a high humidity compartment prior to treatment. The plants are sprayed with a solution of the test compound at a dosage of 600 ppm using an automated sprayline as described under (a). After drying, the plants are kept for 6-8 days at 22° C. and moderate humidity (70%). Assessment is based on the density of lesions per leaf compared with that on leaves of control plants. The extent of disease control in all the above tests is expressed as a rating compared with either an untreated control or a diluent-sprayed-control, according to the criteria: […]

[7] = tested on: Alternaria solani; test: Activity against tomato early blight (AS); assay type: in vivo; details: Table VI; tomato seedlings, contact prophylactic foliar spray, 4 days
Procedure: b) Activity against tomato early blight (Alternaria solani; AS) This test measures the contact prophylactic activity of test compounds applied as a foliar spray. Tomato seedlings (cv Outdoor Girl) are grown to the stage at which the second true leaf is expanded. The plants are treated using an automated sprayline as described under (a). Test compounds are applied as solutions or suspensions in a mixture of acetone and water (50:50 v/v) containing 0.04% surfactant ("TWEEN 20"--Trade Mark). After drying the plants are kept for 24 hours in a glasshouse at 20° C. and 40% R.H., followed by inoculation of the leaf upper surfaces with a suspension of A. solani conidia containing 10^4 spores/ml. For 4 days after inoculation plants are kept moist in a humidity compartment at 21° C. Disease is assessed 4 days after inoculation, based on the percentage of leaf surface area covered by lesions when compared with control plants. The extent of disease control in all the above tests is expressed as a rating compared with either an untreated control or a diluent-sprayed-control, according to the criteria: […]

[8] = tested on: Pyricularia oryzae; assay type: in vivo; details: rice seedlings, direct therapeutic foliar spray, 600 ppm, 4-5 days
[9] = tested on: Erysiphe graminis f.sp. hordei; test: Direct protectant activity against barley powdery mildew (EGP); assay type: in vivo; details: direct protectant foliar spray, 8 days
Procedure: (f) Direct protectant activity against barley powdery mildew (Erysiphe graminis f.sp. hordei; EGP) The test is a direct protectant foliar spray. Leaves of barley seedlings (cv Golden Promise) at the single leaf stage are sprayed with the test compound as described under (a). After drying, the plants are kept for 24 hours in a glasshouse at 18° C. and 40% R.H. Then the plants are inoculated by dusting with mildew conidia and kept at 18° C. and 40% R.H. for 8 days. Assessment is based on the percentage of leaf area covered by sporulation compared with that on leaves of control plants. The extent of disease control in all the above tests is expressed as a rating compared with either an untreated control or a diluent-sprayed-control, according to the criteria: […]

[10] = tested on: Phytophthora infestans; assay type: in vivo; details: tomato, direct protectant foliar spray
[11] = tested on: Venturia inaequalis; test: Activity against apple scab in-vitro (VII); assay type: cell-based; details: 10 ppm, 10 days, 20° C., mycelial growth
Procedure: (j) Activity against apple scab in-vitro (Venturia inaequalis: VII) This test measures the in-vitro activity of compounds against V. inaequalis that causes apple scab. The test compound in acetone is added into 4 ml aliquots of half strength Potato Dextrose Broth dispensed in 25-compartment petri dishes to give final concentrations of 10 ppm. The fungal inoculum consists of mycelial fragments and spores of V. inaequalis grown on malt agar and added to the broth to provide 5×10^4 propagules/ml broth. Petri dishes are incubated at 20° C. for 10 days until the assessment of mycelial growth. The extent of disease control in all the above tests is expressed as a rating compared with either an untreated control or a diluent-sprayed-control, according to the criteria: […]

Row | SMILES | disease control rating PHI [1] | disease control rating RSI [2] | disease control rating EGT [3] | disease control rating PVA [4] | disease control rating BCB [5] | disease control rating LN [6] | disease control rating AS [7] | disease control rating PO [8] | disease control rating EGP [9] | disease control rating PIP [10] | disease control rating VII [11]
1 | CCCCCCNC1COC2(CCC(C(C)(C)C)CC2)C1 (stereo not shown) [Compound 40] | 1 (about 50-80% disease control) | 0 (less than 50% disease control) | 2 (greater than 80% disease control) | 0 (less than 50% disease control) | 0 (less than 50% disease control) | 0 (less than 50% disease control) | 2 (greater than 80% disease control) | 0 (less than 50% disease control) | 2 (greater than 80% disease control) | 0 (less than 50% disease control) | 0 (less than 50% disease control)
2 | CC(C)(C)CC(C)(C)NC1COC2(CCC(C(C)(C)C)CC2)C1 (stereo not shown) [Compound 106] | 0 (less than 50% disease control) | 0 (less than 50% disease control) | 2 (greater than 80% disease control) | 0 (less than 50% disease control) | 0 (less than 50% disease control) | 0 (less than 50% disease control) | 0 (less than 50% disease control) | 0 (less than 50% disease control) | 2 (greater than 80% disease control) | 2 (greater than 80% disease control) | 1 (about 50-80% disease control)
3 | CCC(C)NC1COC2(CCC(C(C)(C)C)CC2)C1 (stereo not shown) [Compound 65] | 0 (less than 50% disease control) | 0 (less than 50% disease control) | 2 (greater than 80% disease control) | 0 (less than 50% disease control) | 2 (greater than 80% disease control) | 0 (less than 50% disease control) | 0 (less than 50% disease control) | 0 (less than 50% disease control) | 2 (greater than 80% disease control) | 0 (less than 50% disease control) | 0 (less than 50% disease control)
4 | CCCCCN(CCC)C1COC2(CCC(C(C)(C)C)CC2)C1 (stereo not shown) [Compound 73] | 0 (less than 50% disease control) | 0 (less than 50% disease control) | 2 (greater than 80% disease control) | 0 (less than 50% disease control) | 1 (about 50-80% disease control) | 0 (less than 50% disease control) | 0 (less than 50% disease control) | 0 (less than 50% disease control) | 2 (greater than 80% disease control) | 0 (less than 50% disease control) | 0 (less than 50% disease control)
5 | CC1CC(C)CN(C2COC3(CCC(C(C)(C)C)CC3)C2)C1 (stereo not shown) [Compound 15] | 0 (less than 50% disease control) | 0 (less than 50% disease control) | 2 (greater than 80% disease control) | 0 (less than 50% disease control) | 0 (less than 50% disease control) | 0 (less than 50% disease control) | 0 (less than 50% disease control) | 0 (less than 50% disease control) | 2 (greater than 80% disease control) | 0 (less than 50% disease control) | 2 (greater than 80% disease control)
